Laboratory results as given in paper PMC9822133, “Design, Synthesis and Antiproliferative Evaluation of Bis-Indole Derivatives with a Phenyl Linker: Focus on Autophagy” (Molecules, 2022).

Legend:
Format in all cases: cell-based, human
Atg7 = assay: Western blot, Atg7; conditions: A549, 24, 48, 72 h
Text: Atg7 belongs to the family of Atg (autophagy-related) proteins involved in the process of autophagy. A ubiquitin-like conjugation system is required for autophagosome formation. The Atg7 protein is an E1-like activating enzyme that ensures the conjugation reaction and is essential for successful conversion of cytosolic LC3-I to its conjugated form, LC3-II.. […] Similar results were reported earlier. Hseu et al. studied the effect of a natural chalcone, flavokawain B, on A549 lung cancer cells. […] Moreover, in curcumin-induced autophagy, up-regulation of beclin-1 has also been observed.
A549 cells were seeded on Petri dishes (55 cm^2) at a density of 1 × 10^6 and allowed to culture in the medium. After 24 h, the test substance was added, and the cells were incubated for 24, 48 and 72 h. Subsequently, the cells were lysed with ice-cold Laemli buffer solution containing glycerol, 1M Tris/HCl (pH 6.8), 20% sodium dodecyl sulphate (SDS), deionized water and mixtures of phosphatase and protease inhibitors. After lysis, the cells were sonicated, and the protein concentration in the samples was quantified using the Pierce® BCA Protein Assay Kit (Thermo Scientific, Rockford, IL, USA) and measured by an automated Cytation™ 3 Cell Imaging Multi-Mode Reader (Biotek) at a wavelength of 570 nm. […]

Beclin-1 = assay: Western blot, Beclin-1; conditions: A549, all time periods, most significantly after 24 h
Text: Beclin-1 plays a key role in the autophagy process, which is activated in cells during periods of stress. It ensures the recruitment of autophagosomal proteins to the pre-autophagosomal structure (PAS) and is part of a complex that is essential for the induction of autophagy (VSP34 complex). It also interacts with proteins from the Bcl-2 family, by which it can be inactivated or cleaved by caspases. This is considered a crosstalk between autophagy and apoptosis. […] There is no mention in the literature focusing on Beclin-1 (and even autophagy) and indole phytoalexins. However, another phytoalexin, resveratrol, has been described to stimulate autophagy in oral cancer cells. […] Later, Fan et al. confirmed the ability of resveratrol to induce autophagy associated with upregulation of Beclin-1 also in lung cancer A549 cells.
(§1) A549 cells were seeded on Petri dishes (55 cm^2) at a density of 1 × 10^6 and allowed to culture in the medium. After 24 h, the test substance was added, and the cells were incubated for 24, 48 and 72 h. […] After lysis, the cells were sonicated, and the protein concentration in the samples was quantified using the Pierce® BCA Protein Assay Kit (Thermo Scientific, Rockford, IL, USA) and measured by an automated Cytation™ 3 Cell Imaging Multi-Mode Reader (Biotek) at a wavelength of 570 nm. […]

p62/SQSTM1 = assay: Western blot, p62; conditions: A549, 24, 48, 72 h, p < 0.001 vs DMSO
Text: Protein p62, also known as sequestosome 1, is a multifunctional, classic autophagy receptor, considered together with LC3AB as an important marker of ongoing autophagic flux. It is involved in cell signaling, metabolism, oxidative stress and cell death. Its main function is the degradation of misfolded proteins through the ubiquitin–proteasome system (UPS) and autophagy, thereby maintaining intracellular proteostasis. P62 binds the autophagosomal membrane protein LC3 and brings p62-containing cytoplasmic contents to the autophagosome for degradation. […] This protein is normally degraded during autophagy after interaction with LC3 II [26]. On the other hand, accumulation of p62 has also been cited in cancer cells exposed to a variety of potential anticancer compounds [27, 28, 29].
as §1

LC3A/B = assay: Western blot, LC3A/B; conditions: A549, all time periods
Text: LC3A/B, a microtubule-associated protein 1A/1B-light chain 3 (LC3), is a soluble intracellular protein. After synthesis of the pro-LC3 protein, this protein is first cleaved to form its cytosolic form known as LC3-I. The cytosolic form of LC3 (LC3-I) conjugates with phosphatidylethanolamine to form the LC3-phosphatidylethanolamine conjugate (LC3-II), which is recruited to autophagosomal membranes. After the formation of autophagosomes, their fusion with lysosomes occurs, autolysosomes are formed, and intra-autophagosomal material (cytoplasmic components including cytosolic proteins and organelles) is degraded by lysosomal hydrolases. Changes in the levels of the autophagosomal marker LC3-II are considered a sign of ongoing autophagy, and its lysosomal turnover thus reflects autophagic activity. […] Association of LC3A/B up-regulation and autophagy induction has also been referred previously.
as §1

A549 cells = assay: Cell cycle analysis by flow cytometry
Procedure: To examine whether the antiproliferative effect of compound 49 is associated with cell cycle arrest, flow cytometry analyses of cell cycle progression were performed.
The A549 lung human alveolar adenocarcinoma cells were seeded at a density of 2 × 10^5/dish. After 24 h incubation, the cells were treated with indole phytoalexin 49 at 20 µM concentration alone or after 1 h pre-treatment with chloroquine (20 µM), and the control group with DMSO (v/v 0.02%). The whole population of treated cells (adherent and floating) for cell cycle analyses was harvested at three different times (24, 48 and 72 h), washed in cold washing buffer (PBS), fixed in cold 70% ethanol and stored at −20 °C at least overnight. For flow cytometry analyses, cell suspensions were washed with PBS, resuspended in staining solution (Triton X-100 final concentration 0.1%, ribonuclease A final concentration 0.5 mg/mL, and propidium iodide final concentration 0.025 mg/mL) and incubated for 30 min in the dark at RT. Stained cells were analyzed using a BD FACSCalibur^TM Flow Cytometer (Becton Dickinson, San Jose, CA, USA) in FL-2 channel. Three independent analyses were performed.

Compound: CC(C)(C)OC(=O)n1cc(CNC(=O)Nc2ccc(NC(=O)NCc3cn(C(=O)OC(C)(C)C)c4ccccc34)cc2)c2ccccc21 [Compound 49, N,N′-(1,4-phenylene)bis{N′-[1-(tert-butoxycarbonyl)indol-3-yl]methyl (urea)}]
- levels of Atg7 (Atg7): significantly increased
- Beclin-1 expression (Beclin-1): significantly upregulated
- p62 expression (p62/SQSTM1): significant increase
- LC3A/B protein expression (LC3A/B): significantly increased
- changes in the G1, S or G2/M phases of the cell cycle (A549 cells; A549, 20 µM, 24, 48 and 72 h, vs DMSO): non-significant changes
- sub-G0/G1 subpopulation (marker of apoptosis) (A549 cells; A549, 20 µM, all time points, vs DMSO control): minimal changes
- cell cycle, combination with CQ (A549 cells; A549, 49 20 µM + CQ 20 µM, 24 h, vs DMSO, CQ or 49 alone): significant cell cycle arrest at the G1 phase
- subG0/G1 subpopulation, combination with CQ (A549 cells; A549, 49 20 µM + CQ 20 µM, all time points): non-significant changes
